Results published in US6916843B1, “Anti-inflammatory actions of cytochrome P450 expoxygenase-derived eicosanoids” (The United States of America as represented by the …, priority 1999, dated 2005).

Experiments:
[1] = tested on: bovine aortic endothelial cells (BAECs); test: Hypoxia-reoxygenation-induced cell injury in BAECs (cell number, LDH release, trypan blue); type: cell-based
Method: Effects of P450-derived arachidonic acid metabolites on hypoxia-reoxygenalion-induced injury in BAECs. BAECs, either untransfected, or 48 hours after transfection with pcDNA3.1/GFP or pcDNA3.1/CYP2J2, or 10 min after treatment with eicosanoids, epoxide hydrolase inhibitors or vehicle, were exposed to hypoxia (95% nitrogen plus 5% carbon dioxide) for 24 hours, followed by reoxygenation (95% air plus 5% carbon dioxide) for 4 hours using an environmental chamber within a 37° C. incubator. Cells maintained under continuous (28 hours) normoxic conditions served as controls.
EETs were prepared by total chemical synthesis as previously described (Corey el al., 102 J. Am. Chem. Soc. 1433-1435 (1980), Falck et al., 23 Tetrahedron Lett. 1755-1756 (1982)). DHETs were prepared by chemical hydration of EETs as described by Capdevila et al., 187 Methods Enzymol. 386-394 (1990). Synthetic EETs and DHETs were purified by reverse-phase HPLC prior to use. BAECs, grown to ˜85% confluency, were treated with either synthetic [11,12]-EET, [11,12]-DHET, or [14,15]-EET in ethanol vehicle (1 μmol/L each, final concentration) for 10 min prior to exposure to hypoxia-reoxygenation. […] Cells treated with vehicle alone served as controls.
After hypoxia-reoxygenation, the cell number was determined using a hemocytometer and the degree of cell injury was assessed by measuring lactate dehydrogenase release into the culture medium using the CytoTox 96 Non-Radioactive Cytotoxicity Assay Kit (Promega, Madison, Wis.) and by counting the number of trypan blue dye stained cells. Data are expressed as a percentage of values obtained from control cells maintained under normoxic conditions.

RelA = test: Cellular localization of RelA in TNF-α-stimulated endothelial cells; type: cell-based; conditions: co-treatment with TNF-α
Description: Co-treatment with [11,12]-EET prevented the nuclear accumulation of RelA. Since the nuclear translocation of RelA requires the degradation of its endogenous cytoplasmic inhibitor, inhibitor kappa B (IκB-α), we followed the fate of IκB-α after TNF-α stimulation in the presence or absence of [11,12]-EET. Stimulation of human endothelial cells with TNF-α caused a rapid and almost complete disappearance of IκB-α which was prevented by co-treatment with [11,12]-EET, but not [14,15]-EET.

NF-κB = NF-κB heterologous promoter (pκB.Luc) luciferase reporter in bovine endothelial cells; type: cell-based
Method: FIG. 2 is a set of bar graphs of cell-surface enzyme immunoassays. […] The difference between treatment with TNF-α alone and in the presence of [11,12]-EET were statistically significant (*p<0.05, **p<0.01), OD, optical density. […] After stimulation with TNF-α (10 ng/ml) in the presence or absence of EET, promoter activity was determined relative to basal activity. *p<0.01 vs. TNF-α alone.
(§1) To localize cis-acting elements in the VCAM-1 promoter that might mediate the inhibitory effects of [11,12]-EET, we transiently transfected bovine aortic endothelial cells with a −755 bp VCAM-1 promoter construct (DeCaterina et al., 96 J. Clin. Invest. 60 (1995)). Stimulation with TNF-α induced a 13-fold increase in relative VCAM-1 promoter activity that was abolished by cotreatment with [11,12]-EET. […] To confirm that the tandem κB sites in the VCAM-1 promoter are repressed by [11,12]-EET we subcloned them into a heterologous promoter construct containing the SV40 enhancer linked to the luciferase reporter gene (pκB.Luc). Stimulation of transfected endothelial cells with TNF-α induced a 6-fold increase in pκB.Luc promoter activity that was abolished by co-treatment with [11,12]-EET, but not [14,15]-EET (FIG. 2C). […] Compared to transfection with the empty pcDNA3.1 vector, overexpression of CYP2J2 decreased TNF-induced VCAM-1 and pκB.Luc promoter activity by 70-80% which were reversed in the presence of SKF525A (FIG. 2C). Neither transfection with CYP2J2 cDNA alone nor treatment with SKF525A alone affected basal promoter activity.

VCAM-1 promoter = VCAM-1 promoter construct activity in transiently transfected bovine aortic endothelial cells; type: cell-based
Description: as §1, with “-755” for “−755”, “SK[…]” for “SKF525A”

endogenous EET levels = test: Endogenous EET levels in BAECs (gas chromatography/mass spectrometry); type: cell-based, bovine; conditions: CYP2J2 transfection vs control BAECs
Description: In addition to the cyclooxygenase and lipoxygenase pathways, the P450 monooxygenase pathway is an important member of the cardiac arachidonic acid metabolic cascade (Wu et al., 272 J. Biol. Chem 12551 (1997)).

superoxide anion = test: Superoxide anion formation by BAECs (lucigenin chemiluminescence); type: cell-based, bovine; conditions: CYP2J2-transfected vs GFP-transfected cells
Method: The rate of superoxide anion generation by BAECs was determined as follows: Forty-eight hours after transfection with either pcDNA3.1/GFP or pcDNA3.1/CYP2J2, BAECs were detached by treatment with trypsin and resuspended in culture medium containing 10% FBS. Special care was taken to avoid unnecessary manipulation of the BAECs. The rate of superoxide anion formation in vitro was determined by chemiluminescence of lucigenin (bis-N-methylacridinium nitrate) as described by Yang et al., 274 Am. J. Physiol. H1955-H1961 (1998)). Briefly, culture medium (10% of FBS added) containing 0.25 mmol/L lucigenin (pH 7.4) was prepared as an assay solution. One milliliter of this assay solution was placed in a plastic scintillation vial., and then 2×10^6 BAECs were gently placed in the assay solution. The chemiluminescence of lucigenin was then detected with the use of a scintillation counter (LS 6500, Beckman Instruments, Fullerton, Calif.) in out-of-coincidence mode with a single active photomultiplier tube every 5 min. The chemical specificity of this light-yielding reaction for superoxide anion has been reported previously (Yang et al., 274 Am. J. Physiol. H1955-H1961 (1998)).

[2] = CYP2J2-transfected vs GFP-transfected BAECs
[3] = overexpression vs empty pcDNA3.1 vector

Row | Compound | hypoxia-reoxygenation-induced cell injury, number of trypan blue stained cells ([1]; 1 μmol/L, added 10 min prior to hypoxia (24 h hypoxia, 4 h reoxygenation)) | effect on TNF-α-induced nuclear accumulation of RelA (RelA) | effect on TNF-α-induced pκB.Luc promoter activity (NF-κB; 100 nM, TNF-α 10 ng/ml (6-fold increase)) | effect on TNF-α-induced VCAM-1 promoter activity, −755 bp construct (VCAM-1 promoter; cotreatment with TNF-α (13-fold increase)) | increase of endogenous EET levels (endogenous EET levels) | cell number after hypoxia-reoxygenation [1, 2] | lactate dehydrogenase released into culture medium after hypoxia-reoxygenation [1, 2] | trypan blue stained cells after hypoxia-reoxygenation [1, 2] | rate of superoxide anion formation (superoxide anion) | decrease of TNF-induced pκB.Luc promoter activity (NF-κB; [3]) | decrease of TNF-induced VCAM-1 promoter activity (VCAM-1 promoter; [3])
1 | CCCCC/C=C\C[C@H]1O[C@H]1C/C=C\C/C=C\CCCC(=O)O [[11,12]-EET] | significantly attenuates | prevented | abolished | abolished |  |  |  |  |  |  | 
2 | CYP2J2: CYP2J2 cDNA (1.9 kb) subcloned into plasmid pcDNA3.1, transfected into endothelial cells |  |  |  |  | approximately 30% | slightly increased | significantly less | significantly fewer | significantly lower | 70-80% | 70-80%
